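Results reflect a 48-hour exposure of cells in 96-well plates to compound at five concentrations. GI50 marks 50% less growth. At the TGI there is no net growth.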
Tests used:
Assay in all cases: NCI tumour cell line growth inhibition, 48 h
[1] = system: 786-0 renal
[2] = system: A498 renal
[3] = system: A549 NSCLC
[4] = system: ACHN renal
[5] = system: BT-549 breast
[6] = system: CAKI-1 renal
[7] = system: CCRF-CEM leukemia
[8] = system: COLO 205 colon
[9] = system: DU-145 prostate
[10] = system: EKVX NSCLC
[11] = system: HCC-2998 colon
[12] = system: HCT-116 colon
[13] = system: HCT-15 colon
[14] = system: HL-60(TB) leukemia
[15] = system: HOP-62 NSCLC
[16] = system: HOP-92 NSCLC
[17] = system: HS 578T breast
[18] = system: HT29 colon
[19] = system: IGROV1 ovarian
[20] = system: K-562 leukemia
[21] = system: KM12 colon
[22] = system: LOX IMVI melanoma
[23] = system: M14 melanoma
[24] = system: MALME-3M melanoma
[25] = system: MCF7 breast
[26] = system: MDA-MB-231 breast
[27] = system: MDA-MB-435
[28] = system: MDA-MB-468 breast
[29] = system: MOLT-4 leukemia
[30] = system: NCI-H226 lung
[31] = system: NCI-H23 lung
[32] = system: NCI-H460 lung
[33] = system: NCI-H522 lung
[34] = system: OVCAR-3 ovarian
[35] = system: OVCAR-4 ovarian
[36] = system: OVCAR-5 ovarian
[37] = system: OVCAR-8 ovarian
[38] = system: PC-3 prostate
[39] = system: RPMI-8226 leukemia
[40] = system: RXF 393 renal
[41] = system: SF-268 CNS
[42] = system: SF-295 CNS
[43] = system: SF-539 CNS
[44] = system: SK-MEL-28 melanoma
[45] = system: SK-MEL-5 melanoma
[46] = system: SK-OV-3 ovarian
[47] = system: SN12C renal
[48] = system: SNB-19 CNS
[49] = system: SNB-75 CNS
[50] = system: SR leukemia
[51] = system: SW-620 colon
[52] = system: T-47D breast
[53] = system: TK-10 renal
[54] = system: U251 CNS
[55] = system: UACC-257 melanoma
[56] = system: UACC-62 melanoma
[57] = system: UO-31 renal

CC(C)Sc1nc(NCCc2c[nH]c3ccccc23)c(C#N)c(-c2ccccc2)n1
GI50 [1]: 12.6 µM | TGI [1]: 30.5 µM | GI50 [2]: 15.1 µM | TGI [2]: 29.5 µM | GI50 [3]: 18.4 µM | TGI [3]: 42.5 µM | GI50 [4]: 14.3 µM | TGI [4]: 28 µM | GI50 [5]: 13.2 µM | TGI [5]: 26.6 µM | GI50 [6]: 11.2 µM | TGI [6]: 26 µM | GI50 [7]: 9.41 µM | TGI [7]: > 100 µM | GI50 [8]: 8.37 µM | TGI [8]: 21.2 µM | GI50 [9]: 14.9 µM | TGI [9]: 34.8 µM | GI50 [10]: 12.1 µM | TGI [10]: 31.1 µM | GI50 [11]: 10 µM | TGI [11]: 22.6 µM | GI50 [12]: 5.17 µM | TGI [12]: 18.5 µM | GI50 [13]: 5.38 µM | TGI [13]: 18.2 µM | GI50 [14]: 13.5 µM | TGI [14]: > 100 µM | GI50 [15]: 13.5 µM | TGI [15]: 27.8 µM | GI50 [16]: 14.7 µM | TGI [16]: 33.7 µM | GI50 [17]: 14.8 µM | TGI [17]: 56.1 µM | GI50 [18]: 5.57 µM | TGI [18]: 18.9 µM | GI50 [19]: 16.6 µM | TGI [19]: 32 µM | GI50 [20]: 4.85 µM | TGI [20]: > 100 µM | GI50 [21]: 5.54 µM | TGI [21]: 22.1 µM | GI50 [22]: 4.57 µM | TGI [22]: 15.3 µM | GI50 [23]: 13.8 µM | TGI [23]: 28.4 µM | GI50 [24]: 16.5 µM | TGI [24]: 30.7 µM | GI50 [25]: 11.3 µM | TGI [25]: 25.4 µM | GI50 [26]: 11.8 µM | TGI [26]: 27.3 µM | GI50 [27]: 14.4 µM | TGI [27]: 28.2 µM | GI50 [28]: 3.12 µM | TGI [28]: 9.98 µM | GI50 [29]: 9.21 µM | TGI [29]: > 100 µM | GI50 [30]: 13 µM | TGI [30]: 27.3 µM | GI50 [31]: 15.5 µM | TGI [31]: 30.7 µM | GI50 [32]: 8.41 µM | TGI [32]: 27.9 µM | GI50 [33]: 15.3 µM | TGI [33]: 30.9 µM | GI50 [34]: 15.8 µM | TGI [34]: 30.8 µM | GI50 [35]: 13.4 µM | TGI [35]: 36.4 µM | GI50 [36]: 12.1 µM | TGI [36]: 25.2 µM | GI50 [37]: 18.2 µM | TGI [37]: 51.4 µM | GI50 [38]: 7.08 µM | TGI [38]: 43.8 µM | GI50 [39]: 11.4 µM | TGI [39]: > 100 µM | GI50 [40]: 6.66 µM | TGI [40]: 20.3 µM | GI50 [41]: 18.4 µM | TGI [41]: 48.3 µM | GI50 [42]: 13.7 µM | TGI [42]: 29.6 µM | GI50 [43]: 13 µM | TGI [43]: 27 µM | GI50 [44]: 14.4 µM | TGI [44]: 28.6 µM | GI50 [45]: 11.4 µM | TGI [45]: 23.6 µM | GI50 [46]: 17.5 µM | TGI [46]: 45.4 µM | GI50 [47]: 13.3 µM | TGI [47]: 26.2 µM | GI50 [48]: 15.8 µM | TGI [48]: 33.3 µM | GI50 [49]: 17.8 µM | TGI [49]: 56.9 µM | GI50 [50]: 5.25 µM | TGI [50]: > 100 µM | GI50 [51]: 10.3 µM | TGI [51]: 26 µM | GI50 [52]: 6.54 µM | TGI [52]: 20.8 µM | GI50 [53]: 22.8 µM | TGI [53]: 46.8 µM | GI50 [54]: 11.6 µM | TGI [54]: 24.4 µM | GI50 [55]: 18.8 µM | TGI [55]: 41.8 µM | GI50 [56]: 14.4 µM | TGI [56]: 27.6 µM | GI50 [57]: 14.3 µM | TGI [57]: 31.2 µM
